Source: US10105357B2, “Indication of antibiotic drugs for preparation of cancer inhibition pharmaceutical composition” (LAUNX BIOMEDICAL CO., LTD., priority 2014, dated 2018)
Like-named read-outs stand apart in the source and are kept apart here.

Legend:
Type in all cases: cell-based, human
[1] = tested on: cancer cell lines; experiment: Cell viability analysis (WST-1) on cancer cell lines; conditions: drug 10 μM, 72 hours, WST-1; Table 3
[2] = tested on: HI650 (Lung Adenocarcinoma); experiment: Cell viability analysis, lung cancer HI650; conditions: Homo sapiens, NCI-H1650, 72 h
[3] = tested on: A549 (Lung Adenocarcinoma); experiment: Cell viability analysis, lung cancer A549; conditions: Homo sapiens, A549, 72 h
[4] = tested on: AGS (Gastric Adenocarcinoma); experiment: Cell viability analysis, gastric cancer AGS; conditions: Homo sapiens, 72 h
[5] = tested on: MKN-45 (Gastric Adenocarcinoma); experiment: Cell viability analysis, gastric cancer MKN-45; conditions: Homo sapiens, MKN-45, 72 h
[6] = tested on: HepG2 (Hepatocellular Carcinoma); experiment: Cell viability analysis, hepatic cancer HepG2; conditions: Homo sapiens, HepG2, 72 h
[7] = tested on: Hep3B (hepatocellular carcinoma); experiment: Cell viability analysis, hepatic cancer Hep3B; conditions: Homo sapiens, 72 h; Hep3B; repeated experiment; read-out: The results of antibiotic drug inhibiting cancer cell lines (cell viability analysis), Hep3B
[8] = tested on: LoVo (Colorectal Adenocarcinoma); experiment: Cell viability analysis, colon cancer LoVo; conditions: Homo sapiens, LoVo, 72 h
[9] = tested on: A375 (Amelanotic Melanoma); experiment: Cell viability analysis, skin cancer A375; conditions: Homo sapiens, A-375, 72 h
[10] = tested on: BCC (basal cell carcinoma); experiment: Cell viability analysis, skin cancer BCC; conditions: Homo sapiens, 72 h; BCC; repeated experiment; read-out: The results of antibiotic drug inhibiting cancer cell lines (cell viability analysis), BCC
[11] = tested on: HeLa (Cervix Adenocarcinoma); experiment: Cell viability analysis, cervical cancer HeLa; conditions: Homo sapiens, HeLa, 72 h, HeLa
[12] = tested on: C-33A (Cervical carcinoma); experiment: Cell viability analysis, cervical cancer C-33A; conditions: Homo sapiens, 72 h; C-33A; repeated experiment; read-out: The results of antibiotic drug inhibiting cancer cell lines (cell viability analysis), C-33A
[13] = tested on: PC3 (p53−) (Prostate Adenocarcinoma); experiment: Cell viability analysis, prostate cancer PC3; conditions: Homo sapiens, 72 h
[14] = tested on: TSGH-8301 (Urinary Bladder Carcinoma); experiment: Cell viability analysis, bladder cancer TSGH-8301; conditions: Homo sapiens, 72 h
[15] = tested on: T24; experiment: Cell viability analysis, bladder cancer T24; conditions: Homo sapiens, T-24, 72 h; T24; repeated experiment; read-out: The results of antibiotic drug inhibiting cancer cell lines (cell viability analysis), T24
[16] = tested on: MCF7 (Mammary Gland, Adenocarcinoma); experiment: Cell viability analysis, breast cancer MCF7; conditions: Homo sapiens, MCF7, 72 h
[17] = tested on: MDA-MB-231 (Mammary Gland, Adenocarcinoma); experiment: Cell viability analysis, breast cancer MDA-MB-231; conditions: Homo sapiens, MDA-MB-231, 72 h; MDA-MB231; repeated experiment; read-out: The results of antibiotic drug inhibiting cancer cell lines (cell viability analysis), MDA-MB231
[18] = tested on: BxPC-3; experiment: Cell viability analysis, pancreatic cancer BxPC-3; conditions: Homo sapiens, 72 h; BxPC-3; repeated experiment; read-out: The results of antibiotic drug inhibiting cancer cell lines (cell viability analysis), BxPC-3
[19] = tested on: AsPC-1; experiment: Cell viability analysis, pancreatic cancer AsPC-1; conditions: Homo sapiens, ASPC1, 72 h; AsPC-1; repeated experiment; read-out: The results of antibiotic drug inhibiting cancer cell lines (cell viability analysis), AsPC-1
[20] = tested on: NIH: OVCAR-3; experiment: Cell viability analysis, ovarian cancer NIH: OVCAR-3; conditions: Homo sapiens, 72 h; NIH-OVCAR-3; repeated experiment; read-out: The results of antibiotic drug inhibiting cancer cell lines (cell viability analysis), NIH-OVCAR-3
[21] = tested on: TOV-21G; experiment: Cell viability analysis, ovarian cancer TOV-21G; conditions: Homo sapiens, TOV21G, 72 h; TOV-21G; repeated experiment; read-out: The results of antibiotic drug inhibiting cancer cell lines (cell viability analysis), TOV-21G
[22] = tested on: SAS (Tongue squamous cell carcinoma); experiment: Cell viability analysis, tongue cancer SAS; conditions: Homo sapiens, 72 h; SAS; repeated experiment; read-out: The results of antibiotic drug inhibiting cancer cell lines (cell viability analysis), SAS
[23] = tested on: U-2OS; experiment: Cell viability analysis, osteosarcoma U-2OS; conditions: Homo sapiens, 72 h; U2OS; repeated experiment; read-out: The results of antibiotic drug inhibiting cancer cell lines (cell viability analysis), U2OS
[24] = tested on: HL-60 (Acute Promyelocytic Leukemia); experiment: Cell viability analysis, leukemia HL-60; conditions: Homo sapiens, HL-60, 72 h, drug 10 μM, 72 hours, WST-1, OD450 nm; read-out: cell viability (survival rate), HL-60
[25] = H1650, repeated experiment, read-out: The results of antibiotic drug inhibiting cancer cell lines (cell viability analysis), H1650
[26] = drug 10 μM, 72 hours, WST-1, OD450 nm, read-out: cell viability (survival rate), H1650
[27] = A549, repeated experiment, read-out: The results of antibiotic drug inhibiting cancer cell lines (cell viability analysis), A549
[28] = drug 10 μM, 72 hours, WST-1, OD450 nm, read-out: cell viability (survival rate), A549
[29] = AGS, repeated experiment, read-out: The results of antibiotic drug inhibiting cancer cell lines (cell viability analysis), AGS
[30] = drug 10 μM, 72 hours, WST-1, OD450 nm, read-out: cell viability (survival rate), AGS
[31] = MKN-45, repeated experiment, read-out: The results of antibiotic drug inhibiting cancer cell lines (cell viability analysis), MKN-45
[32] = drug 10 μM, 72 hours, WST-1, OD450 nm, read-out: cell viability (survival rate), MKN-45
[33] = HepG2, repeated experiment, read-out: The results of antibiotic drug inhibiting cancer cell lines (cell viability analysis), HepG2
[34] = drug 10 μM, 72 hours, WST-1, OD450 nm, read-out: cell viability (survival rate), HepG2
[35] = read-out: The results of antibiotic drug inhibiting cancer cell lines (cell viability analysis), LoVo, repeated experiment
[36] = read-out: cell viability (survival rate), LoVo, drug 10 μM, 72 hours, WST-1, OD450 nm
[37] = A375, repeated experiment, read-out: The results of antibiotic drug inhibiting cancer cell lines (cell viability analysis), A375
[38] = drug 10 μM, 72 hours, WST-1, OD450 nm, read-out: cell viability (survival rate), A375
[39] = repeated experiment, read-out: The results of antibiotic drug inhibiting cancer cell lines (cell viability analysis), HeLa
[40] = drug 10 μM, 72 hours, WST-1, OD450 nm, read-out: cell viability (survival rate), HeLa
[41] = PC-3, repeated experiment, read-out: The results of antibiotic drug inhibiting cancer cell lines (cell viability analysis), PC-3
[42] = drug 10 μM, 72 hours, WST-1, OD450 nm, read-out: cell viability (survival rate), PC3
[43] = TSGH-8301, repeated experiment, read-out: The results of antibiotic drug inhibiting cancer cell lines (cell viability analysis), TSGH-8301
[44] = drug 10 μM, 72 hours, WST-1, OD450 nm, read-out: cell viability (survival rate), TSGH
[45] = MCF-7, repeated experiment, read-out: The results of antibiotic drug inhibiting cancer cell lines (cell viability analysis), MCF-7
[46] = drug 10 μM, 72 hours, WST-1, OD450 nm, read-out: cell viability (survival rate), MCF7

SMILES	viability at 10 µM [2, 25] [%]	viability at 10 µM [2, 26] [%]	viability at 10 µM [3, 27] [%]	viability at 10 µM [3, 28] [%]	viability at 10 µM [4, 29] [%]	viability at 10 µM [4, 30] [%]	viability at 10 µM [5, 31] [%]	viability at 10 µM [5, 32] [%]	viability at 10 µM [6, 33] [%]	viability at 10 µM [6, 34] [%]	viability at 10 µM [7] [%]	viability at 10 µM [8, 35] [%]	viability at 10 µM [8, 36] [%]	viability at 10 µM [9, 37] [%]	viability at 10 µM [9, 38] [%]	viability at 10 µM [10] [%]	viability at 10 µM [11, 39] [%]	viability at 10 µM [11, 40] [%]	viability at 10 µM [12] [%]	viability at 10 µM [13, 41] [%]	further results
CC[C@@H]([C@H](C)O)n1ncn(-c2ccc(N3CCN(c4ccc(OC[C@@H]5CO[C@@](Cn6cncn6)(c6ccc(F)cc6F)C5)cc4)CC3)cc2)c1=O [Posaconazole]	67.5	67	18.1	42.9	65.7	42.7	92.8	52	57.8	87.2	95.2	62	73.7	47.9	49.8	43.5	49.4	75.8	35.5	52.1	inhibition effect on different cancer cell lines [1]: significant inhibition effect; viability at 10 µM [13, 42]: 45.3%; viability at 10 µM [14, 43]: 81.9%; viability at 10 µM [14, 44]: 51.3%; viability at 10 µM [15]: 55.4%; viability at 10 µM [16, 45]: 48%; viability at 10 µM [16, 46]: 63.6%; viability at 10 µM [17]: 60.4%; viability at 10 µM [18]: 42.6%; viability at 10 µM [19]: 32.2%; viability at 10 µM [20]: 62.3%; viability at 10 µM [21]: 37.3%; viability at 10 µM [22]: 26.6%; viability at 10 µM [23]: 38.9%; viability at 10 µM [24]: 71.3%
COc1c(C)c2c(c(O)c1C/C=C(\C)CCC(=O)O)C(=O)OC2 [Mycophenolic (Mycophenolate), Mycophenolic]	54.5	83.1	39	80.6	31.7	57.8	64.9	61.7	62.1	72.9	66.8	58.6	70.1	28.9	57.4	44.6	46.1	90.7	51.8	55.4	viability at 10 µM [13, 42]: 74.3%; viability at 10 µM [14, 43]: 57.5%; viability at 10 µM [14, 44]: 40.3%; viability at 10 µM [15]: 48.2%; viability at 10 µM [16, 45]: 70.3%; viability at 10 µM [16, 46]: 120%; viability at 10 µM [17]: 56.9%; viability at 10 µM [18]: 45.7%; viability at 10 µM [19]: 48.1%; viability at 10 µM [20]: 59%; viability at 10 µM [21]: 40.3%; viability at 10 µM [22]: 43.2%; viability at 10 µM [23]: 43.2%; viability at 10 µM [24]: 65.6%
